Data: US20230416227A1, “PLASMA KALLIKREIN INHIBITORS” (Merck Sharp & Dohme LLC, priority 2020, published 2023)

Each compound was assayed against T1, Human plasma kallikrein (Homo sapiens, UniProt P03952) (assay: Plasma Kallikrein Assay). Conditions: purified Human plasma kallikrein 0.5 nM, substrate Acetyl-K-P-R-AFC, pH 7.4.
T1 construct: yields a heavy chain (371 amino acids) and a light chain (248 amino acids); purchased Enzyme Research Laboratories
Type: biochemical
Method: The effectiveness of a compound of the present invention as an inhibitor of plasma kallikrein can be determined using a relevant purified serine protease, and an appropriate synthetic substrate. The rate of hydrolysis of the chromogenic or fluorogenic substrate by the relevant serine protease was measured both in the absence and presence of compounds of the present invention. Assays were conducted at rt or at 37° C. […] A decrease in the rate of fluorescence change in the presence of inhibitor is indicative of enzyme inhibition. Such methods are known to one skilled in the art. The results of this assay are expressed as the half-maximal inhibitory concentrations (IC50), or the inhibitory constant, Ki.
Plasma kallikrein determinations were made in 50 mM HEPES buffer at pH 7.4 containing 150 mM NaCl, 5 mM CaCl2), and 0.1% PEG 8000 (polyethylene glycol; Fisher Scientific). […]
Times required to achieve equilibration between enzyme and inhibitor were determined in control experiments. The reactions were performed under linear progress curve conditions and fluorescence increase measured at 405 Ex/510 Em nm. […] IC50 was determined by inflection point from a four parameter logistic curve fit. Ki was calculated using the Cheng Prusoff equation, Ki=IC50/(1+([S]/Km)).

T1 sequence (P03952 391-638 limits assumed): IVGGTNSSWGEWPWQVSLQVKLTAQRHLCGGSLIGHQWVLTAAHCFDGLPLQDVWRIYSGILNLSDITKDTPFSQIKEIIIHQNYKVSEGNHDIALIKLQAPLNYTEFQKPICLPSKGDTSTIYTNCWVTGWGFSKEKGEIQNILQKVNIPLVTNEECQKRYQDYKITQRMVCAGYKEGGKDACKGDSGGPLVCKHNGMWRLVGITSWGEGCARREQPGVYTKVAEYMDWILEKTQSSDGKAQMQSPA
T1 sequence (P03952 20-390 partner limits assumed): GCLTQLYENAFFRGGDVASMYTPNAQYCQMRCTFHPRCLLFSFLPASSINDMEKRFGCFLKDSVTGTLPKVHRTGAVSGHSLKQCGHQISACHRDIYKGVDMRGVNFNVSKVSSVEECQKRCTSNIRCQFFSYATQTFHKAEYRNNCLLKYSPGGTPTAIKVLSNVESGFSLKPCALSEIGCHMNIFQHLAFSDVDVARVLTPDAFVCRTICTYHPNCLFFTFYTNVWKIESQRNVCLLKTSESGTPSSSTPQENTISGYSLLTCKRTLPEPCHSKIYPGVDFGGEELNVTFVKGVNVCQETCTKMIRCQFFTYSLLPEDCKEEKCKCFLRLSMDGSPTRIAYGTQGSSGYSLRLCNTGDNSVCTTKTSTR

**Q.** Which IC50 does the source give for `O=C(Nc1cnn(Cc2cnc(N3CCC3)nc2)c1)c1nc(-c2c(C(F)F)ccc(Cl)c2F)cnc1O` [Example 20, N-(1-((2-(Azetidin-1-yl)pyrimidin-5-yl)methyl)-1H-pyrazol-4-yl)-6-(3-chloro-6-(difluoromethyl)-2-fluorophenyl)-3-hydroxypyrazine-2-carboxamide] here?
**A.** 15.4 nM

**Q.** For `CC(c1cnc(N2CC[C@H]2[C@@H](C)N2CC(C(C)(C)O)C2)nc1)n1cc(NC(=O)c2cncc(-c3c(C(F)F)ccc(Cl)c3F)n2)cn1` (stereo partly drawn) [Example 191, 6-(3-Chloro-6-(difluoromethyl)-2-fluorophenyl)-N-(1-(1-(2-((S)-2-((R)-1-(3-(2-hydroxypropan-2-yl)azetidin-1-yl)ethyl)azetidin-1-yl)pyrimidin-5-yl)ethyl)-1H-pyrazol-4-yl)pyrazine-2-carboxamide], which IC50 is on record?
**A.** 1.1 nM

**Q.** `O=C(Nc1cnn(Cc2ccc(N3CCC4OCCC43)nc2)c1)c1cncc(-c2c(C(F)F)ccc(Cl)c2F)n1` (single isomer, unassigned) [Example 122, 6-(3-Chloro-6-(difluoromethyl)-2-fluorophenyl)-N-(1-((6-((3aR,6aR or 3aS,6aS)-hexahydro-4H-furo[3,2-b]pyrrol-4-yl)pyridin-3-yl)methyl)-1H-pyrazol-4-yl)pyrazine-2-carboxamide] was tested. Which IC50 did it give?
**A.** 19.5 nM

**Q.** How did the IC50 turn out when `CC(c1cnc(N2CC[C@H]2CN2CC[C@H](O)[C@@H](C)C2)nc1)n1cc(NC(=O)c2cncc(-c3c(C(F)F)ccc(Cl)c3F)n2)cn1` (stereo partly drawn) [Example 180, 6-(3-Chloro-6-(difluoromethyl)-2-fluorophenyl)-N-(1-(1-(2-((S)-2-(((3S,4S)-4-hydroxy-3-methylpiperidin-1-yl)methyl)azetidin-1-yl)pyrimidin-5-yl)ethyl)-1H-pyrazol-4-yl)pyrazine-2-carboxamide] was run?
**A.** 1.1 nM

**Q.** With `CC(c1cnc(N2CC[C@H]2CN2CCC[C@@H](O)C2)nc1)n1cc(NC(=O)c2cncc(-c3c(C(F)F)ccc(Cl)c3F)n2)cn1` (stereo partly drawn) [Example 177, 6-(3-Chloro-6-(difluoromethyl)-2-fluorophenyl)-N-(1-(1-(2-((S)-2-(((R)-3-hydroxypiperidin-1-yl)methyl)azetidin-1-yl)pyrimidin-5-yl)ethyl)-1H-pyrazol-4-yl)pyrazine-2-carboxamide] as the compound, how does the IC50 read?
**A.** 1.2 nM

**Q.** Which IC50 does the source give for `NC(=O)C1CCCN(c2ccc(Cn3cc(NC(=O)c4cncc(-c5c(C(F)F)ccc(Cl)c5F)n4)cn3)cn2)C1` (stereo not drawn) [Example 129, N-(1-((6-(3-Carbamoylpiperidin-1-yl)pyridin-3-yl)methyl)-1H-pyrazol-4-yl)-6-(3-chloro-6-(difluoromethyl)-2-fluorophenyl)pyrazine-2-carboxamide] here?
**A.** 32.8 nM

**Q.** For `CC(c1cnc(N2CC[C@H]2[C@@H](C)N2CC[C@H](O)[C@@H]2C)nc1)n1cc(NC(=O)c2cncc(-c3c(C(F)F)ccc(Cl)c3F)n2)cn1` (stereo partly drawn) [Example 185, 6-(3-Chloro-6-(difluoromethyl)-2-fluorophenyl)-N-(1-(1-(2-((S)-2-((R)-1-((2S,3S)-3-hydroxy-2-methylpyrrolidin-1-yl)ethyl)azetidin-1-yl)pyrimidin-5-yl)ethyl)-1H-pyrazol-4-yl)pyrazine-2-carboxamide], which IC50 is on record?
**A.** 1.5 nM

**Q.** How did the IC50 turn out when `CC(c1cnc(N2CCN(C)C(=O)C2)nc1)n1cc(NC(=O)c2cncc(-c3c(C(F)F)ccc(Cl)c3F)n2)cn1` (stereo not drawn) [Example 95, 6-(3-Chloro-6-(difluoromethyl)-2-fluorophenyl)-N-(1-(1-(2-(4-methyl-3-oxopiperazin-1-yl)pyrimidin-5-yl)ethyl)-1H-pyrazol-4-yl)pyrazine-2-carboxamide] was run?
**A.** 21.7 nM

**Q.** With `O=C(Nc1cnn(Cc2cnc(N3CCCC3CNCC(F)F)nc2)c1)c1cncc(-c2c(C(F)F)ccc(Cl)c2F)n1` (stereo not drawn) [Example 157, 6-(3-Chloro-6-(difluoromethyl)-2-fluorophenyl)-N-(1-((2-(2-(((2,2-difluoroethyl)amino)methyl)pyrrolidin-1-yl)pyrimidin-5-yl)methyl)-1H-pyrazol-4-yl)pyrazine-2-carboxamide] as the compound, how does the IC50 read?
**A.** 9.3 nM

**Q.** `O=C(Nc1cnn(Cc2cnc(N3CCCC3Cn3ccnc3)nc2)c1)c1cncc(-c2c(C(F)F)ccc(Cl)c2F)n1` (stereo not drawn) [Example 109, N-(1-((2-(2-((1H-Imidazol-1-yl)methyl)pyrrolidin-1-yl)pyrimidin-5-yl)methyl)-1H-pyrazol-4-yl)-6-(3-chloro-6-(difluoromethyl)-2-fluorophenyl)pyrazine-2-carboxamide] was tested. Which IC50 did it give?
**A.** 45.9 nM

**Q.** With `CC(c1cnc(N2CC[C@H]2[C@@H](C)N2CC[C@H](O)C2)nc1)n1cc(NC(=O)c2cncc(-c3c(C(F)F)ccc(Cl)c3F)n2)cn1` (stereo partly drawn) [Example 186, 6-(3-Chloro-6-(difluoromethyl)-2-fluorophenyl)-N-(1-(1-(2-((S)-2-((R)-1-((S)-3-hydroxypyrrolidin-1-yl)ethyl)azetidin-1-yl)pyrimidin-5-yl)ethyl)-1H-pyrazol-4-yl)pyrazine-2-carboxamide] as the compound, how does the IC50 read?
**A.** 1.4 nM

**Q.** With `CC(c1cnc(N2CC[C@H]2[C@@H](C)NCC2(O)CC2)nc1)n1cc(NC(=O)c2cncc(-c3c(C(F)F)ccc(Cl)c3F)n2)cn1` (stereo partly drawn) [Example 192, 6-(3-Chloro-6-(difluoromethyl)-2-fluorophenyl)-N-(1-(1-(2-((S)-2-((R)-1-(((1-hydroxycyclopropyl)methyl)amino)ethyl)azetidin-1-yl)pyrimidin-5-yl)ethyl)-1H-pyrazol-4-yl)pyrazine-2-carboxamide] as the compound, how does the IC50 read?
**A.** 4.1 nM

**Q.** How did the IC50 turn out when `O=C(Nc1cnn(Cc2cnc(N3CCCC3CC3(O)CC3)nc2)c1)c1cncc(-c2c(C(F)F)ccc(Cl)c2F)n1` (single isomer, unassigned) [Example 112, (S or R)-6-(3-Chloro-6-(difluoromethyl)-2-fluorophenyl)-N-(1-((2-(2-((1-hydroxycyclopropyl)methyl)pyrrolidin-1-yl)pyrimidin-5-yl)methyl)-1H-pyrazol-4-yl)pyrazine-2-carboxamide] was run?
**A.** 49.2 nM

**Q.** With `CC(c1cnc(N2CC3CC3C2)nc1)n1cc(NC(=O)c2nc(-c3c(C(F)F)ccc(Cl)c3F)cnc2N)cn1` (single isomer, unassigned) [Example 33, N-(1-((1S or 1R)-1-(2-(3-azabicyclo[3.1.0]hexan-3-yl)pyrimidin-5-yl)ethyl)-1H-pyrazol-4-yl)-3-amino-6-(3-chloro-6-(difluoromethyl)-2-fluorophenyl)pyrazine-2-carboxamide] as the compound, how does the IC50 read?
**A.** 26.5 nM

**Q.** Which IC50 does the source give for `CC(c1cnc(N2CC[C@H]2CN2CCCC(C)(O)C2)nc1)n1cc(NC(=O)c2cncc(-c3c(C(F)F)ccc(Cl)c3F)n2)cn1` (stereo partly drawn) [Example 176, 6-(3-Chloro-6-(difluoromethyl)-2-fluorophenyl)-N-(1-(1-(2-((2S)-2-((3-hydroxy-3-methylpiperidin-1-yl)methyl)azetidin-1-yl)pyrimidin-5-yl)ethyl)-1H-pyrazol-4-yl)pyrazine-2-carboxamide] here?
**A.** 1.4 nM

**Q.** How did the IC50 turn out when `CC(C)(O)CC1CCCN1c1ncc(Cn2cc(NC(=O)c3cncc(-c4c(C(F)F)ccc(Cl)c4F)n3)cn2)cn1` (stereo not drawn) [Example 106, 6-(3-Chloro-6-(difluoromethyl)-2-fluorophenyl)-N-(1-((2-(2-(2-hydroxy-2-methylpropyl)pyrrolidin-1-yl)pyrimidin-5-yl)methyl)-1H-pyrazol-4-yl)pyrazine-2-carboxamide] was run?
**A.** 41.3 nM

**Q.** For `COC[C@@H]1CCCN1c1ccc(Cn2cc(NC(=O)c3cncc(-c4c(C(F)F)ccc(Cl)c4F)n3)cn2)cn1` [Example 120, (S)-6-(3-Chloro-6-(difluoromethyl)-2-fluorophenyl)-N-(1-((6-(2-(methoxymethyl)pyrrolidin-1-yl)pyridin-3-yl)methyl)-1H-pyrazol-4-yl)pyrazine-2-carboxamide], which IC50 is on record?
**A.** 17.8 nM

**Q.** Which IC50 does the source give for `CC1C2CC2CN1c1ncc(C(CO)n2cc(NC(=O)c3cncc(-c4c(C(F)F)ccc(Cl)c4F)n3)cn2)cn1` (single isomer, unassigned) [Example 48, 6-(3-Chloro-6-(difluoromethyl)-2-fluorophenyl)-N-(1-((S or R)-2-hydroxy-1-(2-((1S,2R,5R or 1R, 2S, 5S)-2-methyl-3-azabicyclo[3.1.0]hexan-3-yl)pyrimidin-5-yl)ethyl)-1H-pyrazol-4-yl)pyrazine-2-carboxamide] here?
**A.** 730 nM

**Q.** Which IC50 does the source give for `C[C@@H](c1cnc(N2C[C@@H]3C[C@@H]3[C@@H]2CO)nc1)n1cc(NC(=O)c2cncc(-c3c(C(F)F)ccc(Cl)c3F)n2)cn1` (single isomer, unassigned) [Example 86, 6-(3-Chloro-6-(difluoromethyl)-2-fluorophenyl)-N-(1-((S or R)-1-(2-((1S,2R,5R or 1R,2S,5S)-2-(hydroxymethyl)-3-azabicyclo[3.1.0]hexan-3-yl)pyrimidin-5-yl)ethyl)-1H-pyrazol-4-yl)pyrazine-2-carboxamide] here?
**A.** 13.3 nM

**Q.** With `CC(c1cnc(N2C[C@H]3C[C@H]3C2C(=O)N(C)C)nc1)n1cc(NC(=O)c2cncc(-c3c(C(F)F)ccc(Cl)c3F)n2)cn1` (single isomer, unassigned) [Example 203, (1R,2S,5S or 1S,2R,5R)-3-(5-((S or R)-1-(4-(6-(3-Chloro-6-(difluoromethyl)-2-fluorophenyl)pyrazine-2-carboxamido)-1H-pyrazol-1-yl)ethyl)pyrimidin-2-yl)-N,N-dimethyl-3-azabicyclo[3.1.0]hexane-2-carboxamide] as the compound, how does the IC50 read?
**A.** 77.8 nM

**Q.** How did the IC50 turn out when `CC(c1cnc(N2CC3CC3C2C#N)nc1)n1cc(NC(=O)c2cncc(-c3c(C(F)F)ccc(Cl)c3F)n2)cn1` (single isomer, unassigned) [Example 197] was run?
**A.** 412 nM
